# Test results taken from patent publication US10894793B2, “Bicyclic pyridine, pyrazine, and pyrimidine derivatives as PI3K beta inhibitors” (Janssen Pharmaceutica NV, priority 2016, dated 2021).
# Key:
# [1] = test system: Akt phosphorylated at Thr308 in PC-3 cells; assay: Cellular assay: phosphorylation of Akt (Thr308) in PC-3 cells, MSD ELISA; type: cell-based; conditions: Homo sapiens, PC-3, 1 h, 60 min compound incubation, read-out: IC50 pAkt_Thr308
# Protocol: (§1) Cellular activity of PI3Kβ inhibitors was determined by quantifying the phosphorylation of Akt in PC-3 cells. Akt phosphorylated at Ser473 and Thr308 were measured using an enzyme-linked immunosorbent assay (ELISA; Meso Scale Discovery (MSD), Gaithersburg, Md.) and specific primary antibodies from MSD.
# (§2) On day 1, PC3 cells (ATCC #[…]) were seeded into PerkinElmer MW96 plates at 25.000 cells per well, in 75 μl complete culture medium (DMEM high glucose, AQmedia™, D0819, Sigma-Aldrich) containing 10% heat inactivated FCS and incubated at 37° C., […] during 24 hours. On day 2, compound or DMSO (0.3%) was added and cells were further incubated for 60 min at 37° C., 5% CO2 in a total volume of 100 μl of medium.
# (§3) The phosphoprotein assay was executed according to vendor instructions in the Phospho-Akt (Ser473) Assay Whole Cell Lysate Kit (MSD #K15100D-3) and the Phospho-Akt (Thr308) Assay Whole Cell Lysate Kit (MSD #K151DYD-3) using the lysis, blocking and wash buffer provided.
# (§4) Briefly, at the end of the cell treatment period, media were removed by aspiration and adherent cells were lysed in 50 μl ice-cold lysis buffer. MSD plates are supplied pre-coated with capture antibodies for Phospho-Akt (Ser473 and Thr308). After blocking, lysates from tissue culture plates were added and plates were washed. Then, a solution containing the detection antibody (anti-total Akt conjugated with an electrochemiluminescent compound-MSD Sulfo-tag label) was added. The signals were detected using an MSD SECTOR Imager 6000 and are proportional to the phospho-Akt titres.
# (§5) Data were processed. The percentage of inhibition was plotted against the log concentration of test compounds, and the sigmoidal log concentration-effect curve of best fit was calculated by nonlinear regression analysis. From these concentration-response curves, the IC50 values were calculated. Five concentrations were used for curve fitting.
# [2] = test system: Akt phosphorylated at Ser473 in PC-3 cells; assay: Cellular assay: phosphorylation of Akt (Ser473) in PC-3 cells, MSD ELISA; type: cell-based; conditions: Homo sapiens, PC-3, 1 h, 60 min compound incubation, read-out: IC50 pAkt_S473
# Protocol: as §1, §2, §3, §4, §5
# MTOR_h = biological target: T1, MTOR_h (Homo sapiens, UniProt P42345); assay: Enzyme binding assay (KINOMEscan); conditions: DiscoveRx
# T1 construct: purchased DiscoveRx Corporation
# Protocol: (§6) Enzyme Binding Assays (KINOMEscan®)
# (§7) Kinase enzyme binding affinities of compounds disclosed herein were determined using the KINOMEscan technology performed by DiscoveRx Corporation, San Diego, Calif., USA (www.kinomescan.com). Table A reports the obtained Kd values (nM), with the Kd being the inhibitor binding constant: […]
# PIK3Cγ_h = biological target: T2, PIK3Cγ_h (Homo sapiens, UniProt P48736); assay: Enzyme binding assay (KINOMEscan); conditions: DiscoveRx
# T2 construct: purchased DiscoveRx Corporation
# Protocol: as §6, §7
# PIK3Cβ_h = biological target: T3, PIK3Cβ_h (Homo sapiens, UniProt P42338); assay: Enzyme binding assay (KINOMEscan); conditions: DiscoveRx
# T3 construct: purchased DiscoveRx Corporation
# Protocol: as §6, §7
# PIK3Cδ_h = biological target: T4, PIK3Cδ_h (Homo sapiens, UniProt O00329); assay: Enzyme binding assay (KINOMEscan); conditions: DiscoveRx
# T4 construct: purchased DiscoveRx Corporation
# T4 sequence (O00329 1-1044): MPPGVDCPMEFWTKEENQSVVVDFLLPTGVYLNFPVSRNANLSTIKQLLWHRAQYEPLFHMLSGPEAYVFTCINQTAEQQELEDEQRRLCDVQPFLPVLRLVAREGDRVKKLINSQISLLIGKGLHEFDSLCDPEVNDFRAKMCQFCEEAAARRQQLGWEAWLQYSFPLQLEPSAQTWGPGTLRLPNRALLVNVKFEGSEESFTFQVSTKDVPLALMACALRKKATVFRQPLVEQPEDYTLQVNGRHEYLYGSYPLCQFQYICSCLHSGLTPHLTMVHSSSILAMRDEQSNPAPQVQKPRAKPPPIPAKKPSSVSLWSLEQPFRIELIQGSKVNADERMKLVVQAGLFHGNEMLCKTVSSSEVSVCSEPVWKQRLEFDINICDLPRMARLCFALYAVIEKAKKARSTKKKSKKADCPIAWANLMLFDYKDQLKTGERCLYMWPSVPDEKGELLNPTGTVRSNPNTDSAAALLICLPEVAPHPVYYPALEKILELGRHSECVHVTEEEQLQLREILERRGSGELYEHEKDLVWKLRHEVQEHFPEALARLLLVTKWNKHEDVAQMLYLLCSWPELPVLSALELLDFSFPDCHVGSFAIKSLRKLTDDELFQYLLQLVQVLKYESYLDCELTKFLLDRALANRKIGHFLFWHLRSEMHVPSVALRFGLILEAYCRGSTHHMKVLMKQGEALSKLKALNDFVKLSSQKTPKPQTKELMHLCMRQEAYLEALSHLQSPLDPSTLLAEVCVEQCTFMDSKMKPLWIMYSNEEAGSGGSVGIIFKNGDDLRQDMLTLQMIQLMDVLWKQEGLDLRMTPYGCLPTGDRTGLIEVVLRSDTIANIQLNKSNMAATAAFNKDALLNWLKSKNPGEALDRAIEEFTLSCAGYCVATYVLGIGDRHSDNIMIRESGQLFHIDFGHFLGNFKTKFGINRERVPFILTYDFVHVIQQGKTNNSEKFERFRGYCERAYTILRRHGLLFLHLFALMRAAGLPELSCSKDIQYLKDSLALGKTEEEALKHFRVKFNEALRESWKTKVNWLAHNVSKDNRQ
# Protocol: as §6, §7
# PIK3Cα_h = biological target: T5, PIK3Cα_h (Homo sapiens, UniProt P42336); assay: Enzyme binding assay (KINOMEscan); conditions: DiscoveRx
# T5 construct: purchased DiscoveRx Corporation
# Protocol: as §6, §7
# T5 sequence (P42336 whole entry): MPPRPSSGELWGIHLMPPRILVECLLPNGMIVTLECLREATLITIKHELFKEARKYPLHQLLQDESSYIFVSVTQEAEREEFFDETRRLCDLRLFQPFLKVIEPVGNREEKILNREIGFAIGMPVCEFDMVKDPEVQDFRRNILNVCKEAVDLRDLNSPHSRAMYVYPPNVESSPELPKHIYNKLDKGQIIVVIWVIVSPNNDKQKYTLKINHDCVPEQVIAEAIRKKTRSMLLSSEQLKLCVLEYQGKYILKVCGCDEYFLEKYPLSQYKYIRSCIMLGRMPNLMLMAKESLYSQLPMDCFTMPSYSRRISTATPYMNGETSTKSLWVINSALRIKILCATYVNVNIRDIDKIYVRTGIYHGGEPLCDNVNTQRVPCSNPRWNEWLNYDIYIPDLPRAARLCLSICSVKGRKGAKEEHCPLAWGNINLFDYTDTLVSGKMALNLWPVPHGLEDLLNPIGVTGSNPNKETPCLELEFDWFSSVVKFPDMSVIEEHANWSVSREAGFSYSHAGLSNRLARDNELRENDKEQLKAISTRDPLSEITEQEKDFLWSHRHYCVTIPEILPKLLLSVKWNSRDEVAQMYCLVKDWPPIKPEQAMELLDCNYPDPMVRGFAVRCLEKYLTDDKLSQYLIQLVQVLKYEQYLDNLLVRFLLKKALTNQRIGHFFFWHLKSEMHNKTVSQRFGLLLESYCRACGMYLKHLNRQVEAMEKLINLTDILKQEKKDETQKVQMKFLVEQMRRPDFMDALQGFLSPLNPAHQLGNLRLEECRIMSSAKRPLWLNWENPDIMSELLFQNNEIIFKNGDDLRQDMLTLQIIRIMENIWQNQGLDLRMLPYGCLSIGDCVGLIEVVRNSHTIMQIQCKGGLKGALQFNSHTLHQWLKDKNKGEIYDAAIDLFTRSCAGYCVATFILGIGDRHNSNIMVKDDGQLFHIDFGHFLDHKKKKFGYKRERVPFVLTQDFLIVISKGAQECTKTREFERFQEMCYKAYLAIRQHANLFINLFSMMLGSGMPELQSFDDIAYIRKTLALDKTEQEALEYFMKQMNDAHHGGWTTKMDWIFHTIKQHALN
# T2 sequence (P48736 whole entry): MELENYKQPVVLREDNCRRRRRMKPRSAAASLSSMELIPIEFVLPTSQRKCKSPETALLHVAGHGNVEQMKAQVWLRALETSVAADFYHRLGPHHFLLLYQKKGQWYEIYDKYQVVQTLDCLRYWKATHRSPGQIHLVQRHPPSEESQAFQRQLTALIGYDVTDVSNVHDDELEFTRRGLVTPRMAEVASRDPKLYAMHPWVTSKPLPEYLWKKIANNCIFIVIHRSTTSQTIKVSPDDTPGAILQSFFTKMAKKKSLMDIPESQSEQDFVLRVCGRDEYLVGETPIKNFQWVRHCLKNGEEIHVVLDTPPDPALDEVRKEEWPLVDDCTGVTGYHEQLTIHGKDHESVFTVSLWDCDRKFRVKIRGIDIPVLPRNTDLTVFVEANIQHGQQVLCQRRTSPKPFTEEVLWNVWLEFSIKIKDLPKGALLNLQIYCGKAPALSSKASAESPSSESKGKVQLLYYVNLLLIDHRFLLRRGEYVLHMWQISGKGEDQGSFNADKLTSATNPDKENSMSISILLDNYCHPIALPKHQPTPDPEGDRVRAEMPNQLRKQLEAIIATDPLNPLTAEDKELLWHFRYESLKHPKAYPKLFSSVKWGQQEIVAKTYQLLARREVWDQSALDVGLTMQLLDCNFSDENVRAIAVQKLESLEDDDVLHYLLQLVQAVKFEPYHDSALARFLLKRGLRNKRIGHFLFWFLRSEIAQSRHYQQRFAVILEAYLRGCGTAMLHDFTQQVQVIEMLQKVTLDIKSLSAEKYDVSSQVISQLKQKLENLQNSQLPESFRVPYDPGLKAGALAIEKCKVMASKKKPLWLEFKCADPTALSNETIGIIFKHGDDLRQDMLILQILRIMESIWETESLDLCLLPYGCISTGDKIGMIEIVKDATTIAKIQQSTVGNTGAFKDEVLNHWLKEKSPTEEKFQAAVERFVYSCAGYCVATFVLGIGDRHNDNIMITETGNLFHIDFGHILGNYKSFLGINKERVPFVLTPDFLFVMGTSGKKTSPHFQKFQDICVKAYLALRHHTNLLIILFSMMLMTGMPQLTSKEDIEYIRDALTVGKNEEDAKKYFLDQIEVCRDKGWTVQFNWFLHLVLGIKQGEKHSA
# T3 sequence (P42338 whole entry): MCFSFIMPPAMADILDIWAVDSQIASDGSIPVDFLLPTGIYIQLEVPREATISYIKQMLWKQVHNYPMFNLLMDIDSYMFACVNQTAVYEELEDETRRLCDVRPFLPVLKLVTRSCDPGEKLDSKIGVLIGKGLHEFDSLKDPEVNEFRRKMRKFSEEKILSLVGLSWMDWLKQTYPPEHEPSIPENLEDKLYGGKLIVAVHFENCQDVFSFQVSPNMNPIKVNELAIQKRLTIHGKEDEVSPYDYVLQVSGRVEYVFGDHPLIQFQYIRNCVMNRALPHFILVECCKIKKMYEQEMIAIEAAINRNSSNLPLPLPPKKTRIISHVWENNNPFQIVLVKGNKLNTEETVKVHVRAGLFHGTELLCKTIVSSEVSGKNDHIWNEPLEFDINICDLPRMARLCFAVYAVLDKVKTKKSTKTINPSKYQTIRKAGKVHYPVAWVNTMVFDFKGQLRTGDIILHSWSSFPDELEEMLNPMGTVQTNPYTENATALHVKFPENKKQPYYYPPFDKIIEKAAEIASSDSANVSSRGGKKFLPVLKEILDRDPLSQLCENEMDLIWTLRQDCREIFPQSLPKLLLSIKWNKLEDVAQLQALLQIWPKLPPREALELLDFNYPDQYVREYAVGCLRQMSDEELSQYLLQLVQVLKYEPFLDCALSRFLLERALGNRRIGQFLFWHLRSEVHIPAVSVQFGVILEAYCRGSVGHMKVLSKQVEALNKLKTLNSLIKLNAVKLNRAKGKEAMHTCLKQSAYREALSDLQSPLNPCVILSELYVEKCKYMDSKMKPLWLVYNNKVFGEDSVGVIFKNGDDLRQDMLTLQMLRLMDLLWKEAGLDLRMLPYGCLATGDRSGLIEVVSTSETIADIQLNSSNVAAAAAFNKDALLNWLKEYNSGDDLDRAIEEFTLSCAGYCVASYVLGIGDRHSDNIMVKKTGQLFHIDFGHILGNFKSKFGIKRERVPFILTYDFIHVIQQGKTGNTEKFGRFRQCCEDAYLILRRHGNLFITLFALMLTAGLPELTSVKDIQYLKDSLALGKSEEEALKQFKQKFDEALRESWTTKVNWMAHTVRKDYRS
Compound,IC50 [1],IC50 [2],melting point,Kd (MTOR_h),Kd (PIK3Cγ_h),Kd (PIK3Cβ_h),Kd (PIK3Cδ_h),Kd (PIK3Cα_h)
Cc1nc2c(-c3ccn[nH]3)nc(C3=CCOCC3)cn2c1Cc1cccc(C(F)(F)F)c1C [Compound 1],7 nM,14 nM,240 °C,935 nM,1060 nM,1.6 nM,69 nM,288 nM
Cc1c(Cc2c(CN3CCC(CO)CC3)nc3cnc(N4CCOCC4)cn23)cccc1C(F)(F)F [Compound 10],> 513 nM,> 513 nM,198 °C,> 30200 nM,> 30200 nM,41 nM,4270 nM,> 30200 nM
Cc1c(Cc2c(CCO)nc3cnc(N4CCOCC4)cn23)cccc1C(F)(F)F [Compound 13],> 513 nM,> 513 nM,142 °C,> 30200 nM,> 30200 nM,126 nM,14100 nM,20400 nM
CCOC(=O)Cc1nc2cnc(N3CCOCC3)cn2c1Cc1cccc(C(F)(F)F)c1C [Compound 17],,,135 °C,,,,,
Cc1c(Cc2c(CN3C[C@@H](C)N[C@@H](C)C3)nc3ncc(N4CCOCC4)cn23)cccc1C(F)(F)F [Compound 19],186 nM,380 nM,263 °C,> 30200 nM,> 30200 nM,4.2 nM,1230 nM,16600 nM
Cc1c(Cc2c(CN3CC4(C3)CS(=O)(=O)C4)nc3ncc(N4CCOCC4)cn23)cccc1C(F)(F)F [Compound 21],17 nM,15 nM,228 °C,> 30200 nM,> 30200 nM,0.4 nM,123 nM,1480 nM
Cc1c(Cc2c(CN3CCS(=O)(=O)CC3)nc3ncc(N4CCOCC4)cn23)cccc1C(F)(F)F [Compound 22],~79 nM,214 nM,225 °C,> 30200 nM,> 30200 nM,3.1 nM,631 nM,1440 nM
Cc1c(Cc2c(C(=O)N3C[C@@H](C)N[C@@H](C)C3)nc3ncc(N4CCOCC4)cn23)cccc1C(F)(F)F [Compound 23],~219 nM,389 nM,130 °C,> 30200 nM,> 30200 nM,8.7 nM,1480 nM,> 30200 nM
Cc1c(Cl)cccc1Nc1c(CO)nc2ccc(N3CCOCC3)cn12 [Compound 39],28 nM,~40 nM,,3980 nM,11200 nM,0.5 nM,141 nM,468 nM
Cc1c(Cc2c(CN3CC4(C3)CS(=O)(=O)C4)nc3ccc(C4=CCOCC4)cn23)cccc1C(F)(F)F [Compound 40],~10 nM,15 nM,,12900 nM,> 30200 nM,0.3 nM,44 nM,302 nM
Cc1c(Cc2c(CO)nc3c(N)cc(N4CCOCC4)cn23)cccc1C(F)(F)F [Compound 45],166 nM,145 nM,,18600 nM,15800 nM,91 nM,3470 nM,14500 nM
CN1CCC(c2c(F)cccc2Cc2c(CO)nc3ncc(N4CCOCC4)cn23)CC1 [Compound 48],> 513 nM,> 513 nM,222 °C,> 30200 nM,12900 nM,49 nM,4790 nM,9550 nM
OCc1nc2ncc(N3CCOCC3)cn2c1Cc1cccc(F)c1C1CCNCC1 [Compound 49],> 513 nM,> 513 nM,224 °C,> 30200 nM,15800 nM,15 nM,2240 nM,2570 nM

# Results, then the molecule that gave them:
IC50 [1],IC50 [2],melting point,Kd (MTOR_h),Kd (PIK3Cγ_h),Kd (PIK3Cβ_h),Kd (PIK3Cδ_h),Kd (PIK3Cα_h),Compound
~65 nM,~87 nM,257 °C,12300 nM,6310 nM,4.7 nM,891 nM,1820 nM,Cc1nc2c(C(N)=O)nc(C3=CCOCC3)cn2c1Cc1cccc(C(F)(F)F)c1C [Compound 5]
59 nM,185 nM,197 °C,2170 nM,4700 nM,5.5 nM,682 nM,343 nM,Cc1nc2c(-c3c[nH]cn3)nc(C3=CCOCC3)cn2c1Cc1cccc(C(F)(F)F)c1C [Compound 6]
14 nM,14 nM,,200 nM,324 nM,1.1 nM,13 nM,96 nM,Cc1c(Cc2c(CO)nc3c(-c4c[nH]cn4)cc(C4=CCOCC4)cn23)cccc1C(F)(F)F [Compound 41]
~20 nM,76 nM,,151 nM,1070 nM,2.5 nM,186 nM,525 nM,Cc1c(Cc2c(CO)nc3c(-c4ccn[nH]4)cc(C4=CCOCC4)cn23)cccc1C(F)(F)F [Compound 42]
~59 nM,52 nM,,1670 nM,1920 nM,0.9 nM,35 nM,585 nM,Cc1c(Cc2c(CO)nc3c(-c4ncc[nH]4)cc(C4=CCOCC4)cn23)cccc1C(F)(F)F [Compound 43]
83 nM,135 nM,,17800 nM,21400 nM,1.7 nM,562 nM,7240 nM,Cc1nc2c(CO)cc(C3=CCOCC3)cn2c1Cc1cccc(C(F)(F)F)c1C [Compound 44]
18 nM,32 nM,223 °C,5890 nM,6460 nM,16 nM,1060 nM,8430 nM,Cc1c(Cc2c(CO)nc3c(N)cc(C4=CCOCC4)cn23)cccc1C(F)(F)F [Compound 46]
